Molecular target: T1, FoF1-ATP synthase of cultured cells derived from human (HEK293) (Homo sapiens, UniProt P05496)
T1 construct: fractions containing cultured cell FoF1-ATP synthase obtained by the first centrifugation; endogenous in cells; host or cells: HEK293 (enzyme solubilised with GDN from the mitochondrial inner membrane and fractionated on sucrose density gradients)
Experiment: ATP hydrolysis activity, change in absorbance at 340 nm by NADH oxidation
Type: biochemical
Description: The FoF1-ATP synthase oligomer of the present invention has, in one embodiment, ATP synthesis activity or hydrolysis activity. These activities can be determined by methods well known to those skilled in the art. For example, ATP synthesis activity can be determined by using a luminescent reaction of the luciferin/luciferase system to determine the generated ATP. In addition, ATP hydrolysis activity can be determined based on absorbance changes at 340 nm by conjugating the hydrolysis reaction of ATP and the oxidation reaction from NADH (nicotinamide adenine dinucleotide) to NAD^+ in the presence of phosphoenolpyruvic acid, pyruvate kinase, and lactate dehydrogenase.
ATP hydrolysis activity of the fractions containing cultured cell FoF1-ATP synthase obtained by the first centrifugation under discontinuous density gradient of sucrose was determined. That is, the hydrolysis reaction of ATP with FoF1-ATP synthase was determined at 20° C. as change in absorbance at 340 nm by oxidation from NADH to NAD^+ conjugated with this reaction.
ATP hydrolysis activity of the samples contained in fraction 6-1 was determined in the same manner as described above in the presence or absence of oligomycin.
ATP hydrolysis activity of the samples collected from fraction 7 containing FoF1-ATP synthase tetramer and dimer was determined in the presence or absence of oligomycin, as in Example 1. If IF1, an endogenous inhibitory protein of mammalian ATP synthase, binds to FoF1-ATP synthase, the enzyme reaction is stopped. In order to release from FoF1-ATP synthase, samples collected from fraction 7 were mixed with 330 mM KCl and 100 mM Tris-HCl (pH 8.2). After incubation for 10 minutes at room temperature, ATP hydrolysis activity was determined. IF1 forms a dimer, binds between two FoF1-ATP synthase dimers, and stops the rotation of F1 present outside the membrane. As a result, ATP synthesis of the enzyme is stopped. Oligomycin binds to Fo of FoF1-ATP synthase and inhibits ATP synthesis.

Molecule | ATP hydrolysis activity of the sample contained in fraction 6-1 in the presence of oligomycin (fraction 6-1 of first discontinuous sucrose density gradient centrifugation, HEK293, 20° C., FIG. 7) | ATP hydrolysis activity of the sample of fraction 7 in the presence of oligomycin (fraction 7 of third continuous sucrose density gradient centrifugation, HEK293, regardless of treatment to release IF1, FIG. 12) | Enzyme inhibition of the ATP synthase contained in fraction 7 by IF1 (fraction 7, third centrifugation, activity compared with and without treatment to release IF1 (330 mM KCl, 100 mM Tris-HCl pH 8.2, 10 minutes), FIG. 12)
CC[C@H]1/C=C/C=C/C[C@@H](C)[C@H](O)[C@@](C)(O)C(=O)[C@@H](C)[C@H](O)[C@@H](C)C(=O)[C@@H](C)[C@H](O)[C@@H](C)/C=C/C(=O)O[C@@H]2[C@H](C)[C@H](CC1)O[C@]1(CC[C@H](C)[C@H](C[C@@H](C)O)O1)[C@H]2C [oligomycin] | inhibited | did not exhibit ATP hydrolysis activity | –
IF1: ATP synthase inhibitory factor subunit 1, an endogenous inhibitory protein of a mammalian ATP synthase (protein, UniProt Q9UII2 26-106, looked up) ATPase inhibitor, …: GSDQSENVDRGAGSIREAGGAFGKREQAEEERYFRAQSREQLAALKKHHEEEIVHHKKEIERLQKEIERHKQKIKMLKHDD | – | – | undergoes enzyme inhibition by IF1

From US20240352430A1, “FoF1-ATP SYNTHASE OLIGOMER” (KYOTO UNIVERSITY, priority 2021, published 2024)
